From US20210094973A1, “HETEROCYCLIC COMPOUNDS” (Hoffmann-La Roche Inc., priority 2019, published 2021)

Biological target: T1, MAGL (Homo sapiens, UniProt Q99685)
T1 sequence (Q99685 1-303): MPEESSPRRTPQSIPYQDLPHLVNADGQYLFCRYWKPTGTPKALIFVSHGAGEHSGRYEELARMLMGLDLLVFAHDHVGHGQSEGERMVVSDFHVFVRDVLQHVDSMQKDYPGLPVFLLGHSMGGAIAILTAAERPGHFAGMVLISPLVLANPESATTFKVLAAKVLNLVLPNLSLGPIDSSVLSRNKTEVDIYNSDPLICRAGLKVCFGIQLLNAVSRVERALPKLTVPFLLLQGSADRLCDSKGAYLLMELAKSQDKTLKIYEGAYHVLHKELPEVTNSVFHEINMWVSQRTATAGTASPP
Assay: 2-AG assay (MAGL inhibitory activity, hydrolysis of 2-arachidonoylglycerol followed by mass spectrometry)
Assay type: biochemical
Conditions: 15 min preincubation at RT, 8 μM 2-arachidonoylglycerol, 30 min at RT, arachidonic acid by MS
Experimental: Compounds were profiled for MAGL inhibitory activity by determining the enzymatic activity by following the hydrolysis of the natural substrate 2-arachidonoylglycerol (2-AG) resulting in arachidonic acid, which can be followed by mass spectrometry. This assay is hereinafter abbreviated “2-AG assay”.
The 2-AG assay was carried out in 384 well assay plates (PP, Greiner Cat #784201) in a total volume of 20 μL. Compound dilutions were made in 100% DMSO (VWR Chemicals 23500.297) in a polypropylene plate in 3-fold dilution steps to give a final concentration range in the assay from 12.5 μM to […]. 0.25 μL compound dilutions (100% DMSO) were added to 9 μL MAGL in assay buffer (50 mM TRIS (GIBCO, 15567-027), 1 mM EDTA (Fluka, 03690-100 mL), 0.01% (v/v) Tween. After shaking, the plate was incubated for 15 min at RT. To start the reaction, 10 μL 2-arachidonoylglycerol in assay buffer was added. The final concentrations in the assay was […] and 8 μM 2-arachidonoylglyerol. After shaking and 30 min incubation at RT, the reaction was quenched by the addition of 40 μL of ACN containing 4 μM of d8-arachidonic acid. The amount of arachidonic acid was traced by an online SPE system (Agilent Rapidfire) coupled to a triple quadrupole mass spectrometer (Agilent 6460). A C18 SPE cartridge (G9205A) was used in an ACN/water liquid setup. The mass spectrometer was operated in negative electrospray mode following the mass transitions 303.1→259.1 for arachidonic acid and 311.1→267.0 for d8-arachidonic acid. The activity of the compounds was calculated based on the ratio of intensities [arachidonic acid/d8-arachidonic acid].

Compound: O=C1CO[C@H]2CCN(C(=O)N3CC(OCc4c(Cl)cccc4Cl)C3)C[C@H]2N1 [Example 21, (4aR,8aS)-6-(3-((2,6-Dichlorobenzyl)oxy)azetidine-1-carbonyl)hexahydro-2H-pyrido[4,3-b][1,4]oxazin-3(4H)-one]
- IC50: 0.0278 µM

Compound: O=C1CO[C@H]2CCN(C(=O)N3CC(OCc4cc(Cl)cc(Cl)c4)C3)C[C@H]2N1 [Example 22, (4aR,8aS)-6-(3-((3,5-Dichlorobenzyl)oxy)azetidine-1-carbonyl)hexahydro-2H-pyrido[4,3-b][1,4]oxazin-3(4H)-one]
- IC50: 0.0134 µM

Compound: Cc1c(CC2CCN(C(=O)N3CC[C@@H]4OCC(=O)N[C@@H]4C3)CC2)cncc1C1CC1 [Example 23, (4aR,8aS)-6-(4-((5-Cyclopropyl-4-methylpyridin-3-yl)methyl)piperidine-1-carbonyl)hexahydro-2H-pyrido[4,3-b][1,4]oxazin-3(4H)-one]
- IC50: 0.119 µM

Compound: O=C1CO[C@H]2CCN(C(=O)N3CCC(OCc4ccc(C(F)(F)F)cc4)CC3)C[C@H]2N1 [Example 24, (4aR,8aS)-6-(4-((4-(Trifluoromethyl)benzyl)oxy)piperidine-1-carbonyl)hexahydro-2H-pyrido[4,3-b][1,4]oxazin-3(4H)-one]
- IC50: 0.0621 µM

Compound: O=C1CO[C@H]2CCN(C(=O)N3CCC(OCc4ccc(F)cc4Cl)CC3)C[C@H]2N1 [Example 25, (4aR,8aS)-6-(4-((2-Chloro-4-fluorobenzyl)oxy)piperidine-1-carbonyl)hexahydro-2H-pyrido[4,3-b][1,4]oxazin-3(4H)-one]
- IC50: 0.0725 µM

Compound: O=C1CO[C@H]2CCN(C(=O)N3CCC(OCc4ccc(C(F)(F)F)cc4Cl)CC3)C[C@H]2N1 [Example 26, (4aR,8aS)-6-(4-((2-chloro-4-(trifluoromethyl)benzyl)oxy)piperidine-1-carbonyl)hexahydro-2H-pyrido[4,3-b][1,4]oxazin-3(4H)-one]
- IC50: 0.0052 µM

Compound: COc1cc(COC2CN(C(=O)N3CC[C@@H]4OCC(=O)N[C@@H]4C3)C2)ccc1F [Example 30, (4aR,8aS)-6-(3-((4-Fluoro-3-methoxybenzyl)oxy)azetidine-1-carbonyl)hexahydro-2H-pyrido[4,3-b][1,4]oxazin-3(4H)-one]
- IC50: 0.0773 µM

Compound: O=C1CO[C@H]2CCN(C(=O)N3CC(OCc4ccc(S(F)(F)(F)(F)F)cc4)C3)C[C@H]2N1 [Example 31, (4aR,8aS)-6-(3-((4-(Pentafluoro-16-sulfanyl)benzyl)oxy)azetidine-1-carbonyl)hexahydro-2H-pyrido[4,3-b][1,4]oxazin-3(4H)-one]
- IC50: 0.0058 µM

Compound: O=C1CO[C@H]2CCN(C(=O)N3CC(OCc4ccccc4OC(F)(F)F)C3)C[C@H]2N1 [Example 32, (4aR,8aS)-6-(3-((2-(Trifluoromethoxy)benzyl)oxy)azetidine-1-carbonyl)hexahydro-2H-pyrido[4,3-b][1,4]oxazin-3(4H)-one]
- IC50: 0.0225 µM

Compound: O=C1CO[C@H]2CCN(C(=O)N3CC(OCc4ccc(Cl)cc4OC(F)(F)F)C3)C[C@H]2N1 [Example 33, (4aR,8aS)-6-(3-((4-Chloro-2-(trifluoromethoxy)benzyl)oxy)azetidine-1-carbonyl)hexahydro-2H-pyrido[4,3-b][1,4]oxazin-3(4H)-one]
- IC50: 0.0059 µM

Compound: Cc1ccc(C(F)(F)F)cc1COC1CN(C(=O)N2CC[C@@H]3OCC(=O)N[C@@H]3C2)C1 [Example 34, (4aR,8aS)-6-(3-((2-Methyl-5-(trifluoromethyl)benzyl)oxy)azetidine-1-carbonyl)hexahydro-2H-pyrido[4,3-b][1,4]oxazin-3(4H)-one]
- IC50: 0.008 µM

Compound: O=C1CO[C@H]2CCN(C(=O)N3CCC(Cc4ccc(C(F)(F)F)c(-c5ccccc5)c4)CC3)C[C@H]2N1 [Example 35, (4aR,8aS)-6-[4-[[3-Phenyl-4-(trifluoromethyl)phenyl]methyl]piperidine-1-carbonyl]-4,4a,5,7,8,8a-hexahydropyrido[4,3-b][1,4]oxazin-3-one]
- IC50: 0.0046 µM

Compound: O=C1CO[C@H]2CCN(C(=O)N3CCC(Cc4ccc(C(F)(F)F)cc4C(F)(F)F)CC3)C[C@H]2N1 [Example 36, (4aR,8aS)-6-[4-[[2,4-bis(Trifluoromethyl)phenyl]methyl]piperidine-1-carbonyl]-4,4a,5,7,8,8a-hexahydropyrido[4,3-b][1,4]oxazin-3-one]
- IC50: 0.0094 µM

Compound: Cc1cc(CC2CCN(C(=O)N3CC[C@@H]4OCC(=O)N[C@@H]4C3)CC2)cnc1C(F)(F)F [Example 37, (4aR,8aS)-6-(4-((5-Methyl-6-(trifluoromethyl)pyridin-3-yl)methyl)piperidine-1-carbonyl)hexahydro-2H-pyrido[4,3-b][1,4]oxazin-3(4H)-one]
- IC50: 0.0317 µM

Compound: O=C1CO[C@H]2CCN(C(=O)N3CC(OCc4ccc(OC(F)F)cc4)C3)C[C@H]2N1 [Example 40, (4aR,8aS)-6-(3-((4-(Difluoromethoxy)benzyl)oxy)azetidine-1-carbonyl)hexahydro-2H-pyrido[4,3-b][1,4]oxazin-3(4H)-one]
- IC50: 0.0469 µM

Compound: O=C1CO[C@H]2CCN(C(=O)C3CC(OCc4ccc(C(F)(F)F)cc4Cl)C3)C[C@H]2N1 (stereo partly drawn) [Example 41, (4aR,8aS)-6-(3-((2-Chloro-4-(trifluoromethyl)benzyl)oxy)cyclobutane-1-carbonyl)hexahydro-2H-pyrido[4,3-b][1,4]oxazin-3(4H)-one]
- IC50: 0.774 µM

Compound: O=C1CO[C@H]2CCN(C(=O)[C@H]3C[C@H](OCc4ccc(C(F)(F)F)cc4Cl)C3)C[C@H]2N1 [Example 42, (4aR,8aS)-6-(3-((2-Chloro-4-(trifluoromethyl)benzyl)oxy)cyclobutane-1-carbonyl)hexahydro-2H-pyrido[4,3-b][1,4]oxazin-3(4H)-one]
- IC50: 0.261 µM

Compound: O=C1CO[C@H]2CCN(C(=O)N3CC(OCc4ccc(C(F)(F)F)cn4)C3)C[C@H]2N1 [Example 43, (4aR,8aS)-6-(3-((5-(Trifluoromethyl)pyridin-2-yl)methoxy)azetidine-1-carbonyl)hexahydro-2H-pyrido[4,3-b][1,4]oxazin-3(4H)-one]
- IC50: 0.159 µM

Compound: O=C1CO[C@H]2CCN(C(=O)N3CC(OCc4ccc(OC(F)(F)F)cc4)C3)C[C@H]2N1 [Example 44, (4aR,8aS)-6-(3-((4-(Trifluoromethoxy)benzyl)oxy)azetidine-1-carbonyl)hexahydro-2H-pyrido[4,3-b][1,4]oxazin-3(4H)-one]
- IC50: 0.0236 µM

Compound: O=C1CO[C@H]2CCN(C(=O)N3CC(C(=O)Nc4ccc(F)cc4Cl)C3)C[C@H]2N1 [Example 45, N-(2-chloro-4-fluorophenyl)-1-((4aR,8aS)-3-oxooctahydro-2H-pyrido[4,3-b][1,4]oxazine-6-carbonyl)azetidine-3-carboxamide]
- IC50: 1.25 µM

Compound: CC(Oc1ccc(C(F)(F)F)cc1Cl)C1CN(C(=O)N2CC[C@H]3OCC(=O)N[C@H]3C2)C1 (stereo partly drawn) [Example 46, (4aS,8aR)-6-(3-(1-(2-Chloro-4-(trifluoromethyl)phenoxy)ethyl)azetidine-1-carbonyl)hexahydro-2H-pyrido[4,3-b][1,4]oxazin-3(4H)-one]
- IC50: 0.225 µM

Compound: O=C1CO[C@H]2CCN(C(=O)N3CCC(c4ccnnc4C(F)(F)F)CC3)C[C@H]2N1 [Example 47, (4aR,8aS)-6-(4-(3-(Trifluoromethyl)pyridazin-4-yl)piperidine-1-carbonyl)hexahydro-2H-pyrido[4,3-b][1,4]oxazin-3(4H)-one]
- IC50: 0.0909 µM

Compound: O=C1CO[C@H]2CCN(C(=O)N3CC(c4nnc(-c5ccc(F)cc5F)[nH]4)C3)C[C@H]2N1 [Example 48, (4aR,8aS)-6-[3-[5-(2,4-Difluorophenyl)-4H-1,2,4-triazol-3-yl]azetidine-1-carbonyl]-4,4a,5,7,8,8a-hexahydropyrido[4,3-b][1,4]oxazin-3-one]
- IC50: 0.333 µM

Compound: O=C1CO[C@H]2CCN(C(=O)N3CC(OCc4ccc(F)cc4C(F)(F)F)C3)C[C@H]2N1 [Example 49, (4aR,8aS)-6-[3-[[4-Fluoro-2-(trifluoromethyl)phenyl]methoxy]azetidine-1-carbonyl]-4,4a,5,7,8,8a-hexahydropyrido[4,3-b][1,4]oxazin-3-one]
- IC50: 0.034 µM

Compound: (4aR,8aS)-6-[rel-(3R,4R)-4-[(2-chloro-4-fluoro-phenoxy)methyl]-3-methyl-piperidine-1-carbonyl]-4,4a,5,7,8,8a-hexahydropyrido[4,3-b][1,4]oxazin-3-one [Example 38]
- IC50: 0.0064 µM

Compound: (4aR,8aS)-6-[rel-(3R,4R)-4-[(2-chloro-4-fluoro-phenoxy)methyl]-3-methyl-piperidine-1-carbonyl]-4,4a,5,7,8,8a-hexahydropyrido[4,3-b][1,4]oxazin-3-one [Example 39]
- IC50: 0.0019 µM
